The structures appear in SMILES notation.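 The compound was tested at five concentrations on cells cultured in 96-well plates, with a 48-hour exposure period. GI50 = concentration required for 50% inhibition of growth. At the TGI there is no net growth.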

Among the test systems are M19-MEL melanoma; SW-620 colon; A549 NSCLC; MOLT-4 leukemia; LXFL 529 NSCLC; HOP-18 NSCLC; SNB-19 CNS; XF 498 CNS; PC-3 prostate; HS 578T breast.
What all share (experiment): NCI-60 cell line screen, 48 h

For the compound `O=[N+]([O-])c1ccc(/C(Cl)=C/c2ccc(/C=C(\Cl)c3ccc([N+](=O)[O-])cc3[N+](=O)[O-])cc2)c([N+](=O)[O-])c1`, the TGI with M19-MEL melanoma, with SW-620 colon, in the test on A549 NSCLC, with MOLT-4 leukemia and with LXFL 529 NSCLC was over 100 µM in each case.
As for `C=C1C(=O)c2cc3c(cc2C(c2cc(OC)c(OC)c(OC)c2)[C@@H]1C(=O)O)OCO3` (stereo not given in full), the TGI with M19-MEL melanoma, with SW-620 colon, in the test on A549 NSCLC, in the test on HOP-18 NSCLC, with MOLT-4 leukemia and with LXFL 529 NSCLC was over 100 µM throughout.
As to `CC(=O)SC(SC(C)=O)SC(C)=O`, the TGI in the test on SNB-19 CNS, in the test with M19-MEL melanoma, with SW-620 colon, in the test with A549 NSCLC, with HOP-18 NSCLC and in the test on MOLT-4 leukemia was over 100 µM in each case. For the same compound, the TGI with LXFL 529 NSCLC is over 100 µM.
Take `CCc1nc2ccccc2c(=O)n1/N=C(\N=Nc1ccc(Cl)cc1)c1ccccc1`: the TGI is 82.6 µM in the test with SNB-19 CNS; over 100 µM in the test on M19-MEL melanoma; over 100 µM in the test with SW-620 colon; 98.7 µM in the test with A549 NSCLC; 71 µM in the test with HOP-18 NSCLC; over 100 µM in the test with MOLT-4 leukemia. Further, the TGI in the test on LXFL 529 NSCLC stood at 50.8 µM.
Take `COC(=O)c1nc(C(=O)OC)c2c([nH]c3ccccc32)c1C(=O)OC`: the TGI in the test with SW-620 colon, with A549 NSCLC, with MOLT-4 leukemia, in the test with XF 498 CNS and with LXFL 529 NSCLC was over 100 µM each time.
With `COC1=CC(=O)OC(/C=C(C)/C=C/C2=C(C)CCCC2(C)C)C1` (stereo not given), the TGI in the test with SNB-19 CNS, in the test with M19-MEL melanoma, with SW-620 colon, with A549 NSCLC, in the test with MOLT-4 leukemia and in the test with LXFL 529 NSCLC was over 100 µM each time.
In the case of `O=C([O-])CCc1ccccc1.O=C([O-])CCc1ccccc1.O=C([O-])CCc1ccccc1.O=C([O-])CCc1ccccc1.[Mo+2].[Mo+2]`, the GI50 in the test on SNB-19 CNS, in the test with M19-MEL melanoma, with SW-620 colon, in the test with A549 NSCLC, in the test with HOP-18 NSCLC and in the test on MOLT-4 leukemia was over 100 µM each time. In the test with LXFL 529 NSCLC, the GI50 was over 100 µM. The TGI in the test with SNB-19 CNS, with M19-MEL melanoma, in the test on SW-620 colon, in the test on A549 NSCLC, with HOP-18 NSCLC and in the test with MOLT-4 leukemia was over 100 µM each time. This compound also returned a TGI with LXFL 529 NSCLC of over 100 µM.
For `O=C1C(=C([O-])c2ccccc2)C(=O)c2ccccc21.O=C1C(=C([O-])c2ccccc2)C(=O)c2ccccc21.[Co+2]`, the GI50 in the test on SNB-19 CNS is over 100 µM; with M19-MEL melanoma, over 100 µM; in the test on SW-620 colon, over 100 µM; in the test on A549 NSCLC it was over 100 µM; with HOP-18 NSCLC, 54.4 µM; with MOLT-4 leukemia, over 100 µM. The TGI in the test with SNB-19 CNS, with M19-MEL melanoma, in the test on SW-620 colon, in the test on A549 NSCLC, with HOP-18 NSCLC and in the test on MOLT-4 leukemia was over 100 µM in each case.
With `O=c1c(O)cc2c(O)oc3c(=O)c(O)c(O)c4c(O)oc1c2c43`, the TGI with SNB-19 CNS is over 100 µM; in the test with M19-MEL melanoma, 25 µM; in the test on SW-620 colon, over 100 µM; with A549 NSCLC it was over 100 µM; with HOP-18 NSCLC it was over 100 µM; with MOLT-4 leukemia, 72.2 µM. The compound further registered a TGI with LXFL 529 NSCLC of over 100 µM.
Turning to `C=CCC12CCC(=O)[C@@]1(C)CC=C(O)C2=O` (stereo not given in full), the TGI with SNB-19 CNS, in the test on M19-MEL melanoma, in the test on SW-620 colon, in the test with A549 NSCLC, with HOP-18 NSCLC and with MOLT-4 leukemia was over 100 µM in each case. For the same compound, in the test with LXFL 529 NSCLC, the TGI is over 100 µM.
Turning to `FC(F)(F)c1cc(-c2ncn(/C=C\c3nnco3)n2)cc(C(F)(F)F)c1`, the GI50 with SNB-19 CNS is 0.126 µM; in the test on SW-620 colon it was 0.0536 µM; in the test on A549 NSCLC, 0.0586 µM; in the test with PC-3 prostate it was 0.093 µM; in the test on MOLT-4 leukemia, 0.0284 µM; in the test on HS 578T breast, 0.195 µM. The TGI with SNB-19 CNS is over 100 µM; in the test on SW-620 colon, over 43.1 µM; in the test with A549 NSCLC, over 42.3 µM; in the test with PC-3 prostate it was over 36.9 µM; in the test with MOLT-4 leukemia, 0.938 µM; in the test with HS 578T breast, 8.28 µM.
As for `O=c1[nH]c2ccccc2n2cc3ccccc3c12`, the GI50 in the test with SNB-19 CNS is 8.93 µM; with SW-620 colon, 3.69 µM; in the test on A549 NSCLC, 5.9 µM; in the test with PC-3 prostate, 5.74 µM; in the test with MOLT-4 leukemia, 3.62 µM; in the test on HS 578T breast, 0.52 µM. Moreover, the TGI with SNB-19 CNS is over 100 µM; in the test on SW-620 colon it was over 100 µM; with A549 NSCLC, 32.2 µM; in the test on PC-3 prostate it was 29.1 µM; in the test with MOLT-4 leukemia, 8.77 µM; with HS 578T breast, 34.7 µM.

Values taken from PubChem BioAssay (NCI).
